Results published in US11806342B2, “Diiodohydroxyquinoline for the treatment of clostridium difficile infection” (Purdue Research Foundation, priority 2019, dated 2023).

Legend:
Format in all cases: cell-based, Clostridium difficile
C. difficile I13 = assay: MIC and MBC, broth microdilution; conditions: Clostridioides difficile, C. difficile I13; for MBC: read-out: MBC; for MIC: read-out: MIC
Experimental: (§1) Antibacterial activity of Diiodohydroxyquinoline against a wide panel of Clostridium difficile strains. […] MIC50 and MIC90 are the minimum concentration of each agent that inhibited growth of 50% and 90% of the tested isolates, respectively. The minimum bactericidal concentration (MBC) of these drugs was tested by plating 5 μL from wells with no growth onto BHIS agar plates. The MBC was categorized as the lowest concentration that reduced bacterial growth by 99.9% MIC50 and MIC90 are the minimum concentration of each agent that inhibited the growth of 50% and 90% of the tested isolates, respectively. The minimum bactericidal concentration (MBC) of these drugs was tested by plating 5 μL from wells with no growth onto BHIS agar plates. The MBC was categorized as the lowest concentration that reduced bacterial growth by 99.9% [29-31].

C. difficile HM-745 = assay: MIC and MBC, broth microdilution; conditions: Clostridioides difficile, HM745, C. difficile HM-745; for MBC: read-out: MBC; for MIC: read-out: MIC
Experimental: as §1

C. difficile P3 = assay: MIC and MBC, broth microdilution; conditions: Clostridioides difficile, C. difficile P3; for MBC: read-out: MBC; for MIC: read-out: MIC
Experimental: as §1

C. difficile P30 = assay: MIC and MBC, broth microdilution; conditions: Clostridioides difficile, C. difficile P30; for MBC: read-out: MBC; for MIC: read-out: MIC
Experimental: as §1

C. difficile NR-49278 = assay: MIC and MBC, broth microdilution; conditions: Clostridioides difficile, NR49278, C. difficile NR-49278; for MBC: read-out: MBC; for MIC: read-out: MIC
Experimental: as §1

C. difficile I11 = assay: MIC and MBC, broth microdilution; conditions: Clostridioides difficile, C. difficile I11; for MBC: read-out: MBC; for MIC: read-out: MIC
Experimental: as §1

C. difficile I10 = assay: MIC and MBC, broth microdilution; conditions: Clostridioides difficile, C. difficile I10; for MBC: read-out: MBC; for MIC: read-out: MIC
Experimental: as §1

C. difficile NR-49285 = assay: MIC and MBC, broth microdilution; conditions: Clostridioides difficile, NR49285, C. difficile NR-49285; for MBC: read-out: MBC; for MIC: read-out: MIC
Experimental: as §1

C. difficile P15 = assay: MIC and MBC, broth microdilution; conditions: Clostridioides difficile, C. difficile P15; for MBC: read-out: MBC; for MIC: read-out: MIC
Experimental: as §1

C. difficile P5 = assay: MIC and MBC, broth microdilution; conditions: Clostridioides difficile, C. difficile P5; for MBC: read-out: MBC; for MIC: read-out: MIC
Experimental: as §1

C. difficile ATCC 1801 = assay: MIC and MBC, broth microdilution; conditions: Clostridioides difficile, ATCC1801, C. difficile ATCC 1801; for MBC: read-out: MBC; for MIC: read-out: MIC
Experimental: as §1

C. difficile P20 = assay: MIC and MBC, broth microdilution; conditions: Clostridioides difficile, C. difficile P20; for MBC: read-out: MBC; for MIC: read-out: MIC
Experimental: as §1

C. difficile I6 = assay: MIC and MBC, broth microdilution; conditions: Clostridioides difficile, C. difficile I6; for MBC: read-out: MBC; for MIC: read-out: MIC
Experimental: as §1

C. difficile P19 = assay: MIC and MBC, broth microdilution; conditions: Clostridioides difficile, C. difficile P19; for MBC: read-out: MBC; for MIC: read-out: MIC
Experimental: as §1

C. difficile ATCC 43255 [1] = assay: MIC and MBC, broth microdilution; conditions: Clostridioides difficile, ATCC43255, C. difficile ATCC 43255; for MBC: read-out: MBC; for MIC: read-out: MIC
Experimental: as §1

C. difficile NR-49288 = assay: MIC and MBC, broth microdilution; conditions: Clostridioides difficile, NR49288, C. difficile NR-49288; for MBC: read-out: MBC; for MIC: read-out: MIC
Experimental: as §1

C. difficile I9 = assay: MIC and MBC, broth microdilution; conditions: Clostridioides difficile, C. difficile I9; for MBC: read-out: MBC; for MIC: read-out: MIC
Experimental: as §1

C. difficile P6 = assay: MIC and MBC, broth microdilution; conditions: Clostridioides difficile, C. difficile P6; for MBC: read-out: MBC; for MIC: read-out: MIC
Experimental: as §1

C. difficile ATCC 43255 [2] = assay: Spore inhibition assay; conditions: five days
Experimental: (§2) The spore inhibition assay was performed as described in previous reports to investigate the effect of diiodohydroxyquinoline on C. difficile spore formation. Briefly, […], the bacterial suspension was split into microcentrifuge tubes and drugs were added (in triplicates) at concentrations equal to ½×MIC or 1×MIC. Tubes were then, incubated anaerobically for five days at 37° C. Thereafter, an aliquot from each tube was diluted and plated on BHIS agar plates supplemented with 0.1% taurocholic acid, to count the total bacterial counts (vegetative bacteria+spores). The remaining solution was centrifuged, and the pellet was suspended in PBS, stored overnight at 4° C., and subsequently shock-heated at 70° C. for 30 minutes to kill the vegetative cells. The resulting solution was serially diluted and plated to determine the heat-resistant spore counts. Spore inhibition assay was performed as described in previous reports to investigate the effect of DIHQ on C. difficile spore formation. Briefly, log-phase cultures of C. difficile strains (ATCC BAA-1870, ATCC 43255, and NR-49277) were diluted in BHIS to an initial density of ˜10^6 CFU/mL. Afterwards, the bacterial suspension was split in small tubes and the drugs were added (in triplicates) at concentrations equal to ½×MIC or 1×MIC. Tubes were then incubated anaerobically for 5 days at 37° C. After that, an aliquot from each tube was diluted and plated on BHIS agar plates supplemented with 0.1% taurocholic acid, to count the total bacterial count (vegetative bacteria+spores). The remaining solution was centrifuged, and the pellet was suspended in PBS and stored overnight at 4° C. then shock heated at 70° C. for 30 minutes to kill the vegetative cells. The resulting solution was serially diluted and plated to determine the heat-resistant spore counts.

C. difficile NR-49277 = assay: Spore inhibition assay; conditions: five days
Experimental: as §2

[3] = test system: C. difficile ATCC BAA-1870; assay: Spore inhibition assay; conditions: five days
Experimental: as §2

[4] = C. difficile ATCC BAA-1870, 1×MIC
[5] = C. difficile ATCC BAA-1870, ½×MIC

Oc1c(I)cc(I)c2cccnc12 [DIHQ, 5,7-diiodoquinolin-8-ol]
0.25 µg/mL: MIC (C. difficile NR-49278) | MIC (C. difficile NR-49288)
~0.38 log10: reduction in spore count (C. difficile ATCC 43255 [2]; C. difficile ATCC 43255, ½×MIC)
0.06 µg/mL: MBC (C. difficile I9) | MIC (C. difficile I9)
~0.99 log10: reduction in spore count (C. difficile ATCC 43255 [2]; C. difficile ATCC 43255, 1×MIC)
~0.62 log10: reduction in spore count (C. difficile NR-49277; C. difficile NR-49277, 1×MIC)
~0.74 log10: reduction in spore count [3, 5]
2 µg/mL: MBC (C. difficile I13) | MIC (C. difficile I13) | MBC (C. difficile P3) | MIC (C. difficile P3) | MIC (C. difficile P5) | MIC (C. difficile ATCC 1801)
~1.24 log10: reduction in spore count [3, 4]
4 µg/mL: MBC (C. difficile P5) | MBC (C. difficile ATCC 1801)
~0.56 log10: reduction in spore count (C. difficile NR-49277; C. difficile NR-49277, ½×MIC)
0.5 µg/mL: MBC (C. difficile P30) | MIC (C. difficile P30) | MBC (C. difficile NR-49278) | MBC (C. difficile I6) | MIC (C. difficile I6) | MIC (C. difficile P19) | MBC (C. difficile ATCC 43255 [1]) | MIC (C. difficile ATCC 43255 [1]) | MBC (C. difficile NR-49288) | MBC (C. difficile P6) | MIC (C. difficile P6)
1 µg/mL: MBC (C. difficile HM-745) | MIC (C. difficile HM-745) | MBC (C. difficile I11) | MIC (C. difficile I11) | MBC (C. difficile I10) | MIC (C. difficile I10) | MBC (C. difficile NR-49285) | MIC (C. difficile NR-49285) | MBC (C. difficile P15) | MIC (C. difficile P15) | MBC (C. difficile P20) | MIC (C. difficile P20) | MBC (C. difficile P19)

CCc1c(Cl)c(O)c(Cl)c(O)c1C(=O)O[C@H]1[C@H](O)[C@H](OC)[C@H](OC/C2=C\C=C\C[C@H](O)/C(C)=C/[C@H](CC)[C@@H](O[C@@H]3OC(C)(C)[C@@H](OC(=O)C(C)C)[C@H](O)[C@@H]3O)/C(C)=C/C(C)=C/C[C@@H]([C@@H](C)O)OC2=O)O[C@@H]1C [Fidaxomicin, fidaxomicin]
0.06 µg/mL: MIC (C. difficile HM-745) | MBC (C. difficile P15) | MIC (C. difficile P15) | MIC (C. difficile ATCC 1801) | MBC (C. difficile I6) | MIC (C. difficile I6) | MBC (C. difficile P19)
~1.27 log10: reduction in spore count (C. difficile NR-49277; C. difficile NR-49277, 1×MIC)
~0.75 log10: reduction in spore count (C. difficile ATCC 43255 [2]; C. difficile ATCC 43255, ½×MIC)
~0.8 log10: reduction in spore count (C. difficile NR-49277; C. difficile NR-49277, ½×MIC)
0.015 µg/mL: MIC (C. difficile P3) | MBC (C. difficile NR-49278) | MBC (C. difficile I11) | MIC (C. difficile I11) | MIC (C. difficile I10) | MIC (C. difficile NR-49285) | MBC (C. difficile P20) | MIC (C. difficile P20) | MBC (C. difficile ATCC 43255 [1]) | MIC (C. difficile ATCC 43255 [1]) | MBC (C. difficile NR-49288)
~1.8 log10: reduction in spore count (C. difficile ATCC 43255 [2]; C. difficile ATCC 43255, 1×MIC) | reduction in spore count [3, 4]
0.007 µg/mL: MBC (C. difficile P30) | MIC (C. difficile P30) | MIC (C. difficile NR-49278) | MIC (C. difficile NR-49288)
~1.02 log10: reduction in spore count [3, 5]
0.125 µg/mL: MBC (C. difficile HM-745) | MBC (C. difficile ATCC 1801)
0.03 µg/mL: MBC (C. difficile I13) | MIC (C. difficile I13) | MBC (C. difficile P3) | MBC (C. difficile I10) | MBC (C. difficile NR-49285) | MBC (C. difficile P5) | MIC (C. difficile P5) | MIC (C. difficile P19) | MBC (C. difficile I9) | MIC (C. difficile I9)
0.003 µg/mL: MBC (C. difficile P6) | MIC (C. difficile P6)
